This is an account of results in PubChem BioAssay (NCI).

Holding throughout (assay): growth of human tumour cells (NCI), 48 h
In test [1] the test system is MALME-3M melanoma.
Test [2] has as its system CCRF-CEM leukemia.
Test [3] relates to MCF7 breast.
Test [4] deals with HOP-62 NSCLC.
Test [5] deals with HCT-15 colon.
Test [6] deals with UACC-257 melanoma.
Test [7] relates to U251 CNS.
Test [8] has as its system PC-3 prostate.

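Following 48 hours of exposure in 96-well plates, responses at five concentrations were used to interpolate endpoints linearly. The concentration for 50% growth inhibition is given as GI50. TGI is the concentration that stops growth completely.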

Turning to `CN=c1ccc2nc3ccc(N)cc3sc-2c1`, the GI50 in test [1] was 1.09 µM; in test [2], 0.584 µM; in test [3], 1.63 µM; in test [4], 6.8 µM; in test [5], 1.62 µM; in test [6], 1.18 µM. In addition, the GI50 in test [7] was 1.36 µM; in test [8], 0.276 µM. Moreover, the TGI in test [1] stood at 3.45 µM; in test [2], 17.9 µM; in test [3], 6.5 µM; in test [4], 27.3 µM; in test [5], 68 µM; in test [6], 5.04 µM. Further, the values for the TGI in test [7] and in test [8] were 10.2 µM and 8.85 µM, respectively.

Take `COc1cc(N2C(=O)[C@H](O)C2c2ccc(SC)cc2)cc(OC)c1OC` (some centres undefined): the GI50 was 21.6 µM in test [1]; < 0.01 µM in test [2]; < 0.01 µM in test [3]; < 0.01 µM in test [4]; 0.0115 µM in test [5]; 14.6 µM in test [6]. Also, the GI50 in test [7] and in test [8] was < 0.01 µM throughout. Besides, the TGI in test [1] is 74 µM; in test [2], > 100 µM; in test [3], > 100 µM; in test [4], > 100 µM; in test [5], > 100 µM; in test [6] it was > 100 µM. Besides, the TGI in test [7] and in test [8] was > 100 µM in each case.

Consider `O=C(/C=C/c1cc2ccccc2[nH]c1=O)/C=C/c1cc2ccccc2[nH]c1=O`, for which the GI50 is > 59.6 µM in test [1]; 7.97 µM in test [2]; 3.84 µM in test [3]; 14.5 µM in test [4]; 9.96 µM in test [5]; 8.32 µM in test [6]. For the same molecule, the GI50 is 4.53 µM in test [7] and > 21.5 µM in test [8]. The TGI in test [1] is > 100 µM; in test [2], > 100 µM; in test [3], > 47.7 µM; in test [4] it was > 76.9 µM; in test [5], > 100 µM; in test [6], 19.6 µM. Moreover, the TGI was 12.1 µM in test [7] and > 81.1 µM in test [8].

Regarding `Fc1ccc(/C=N/n2c(-c3ccc(F)c(Cl)c3)nn(CNc3ccccc3C(F)(F)F)c2=S)cc1`, the GI50 is 27.2 µM in test [1]; 51.6 µM in test [2]; 30.7 µM in test [3]; > 100 µM in test [4]; 79.4 µM in test [5]; 42.5 µM in test [6]. Further, the GI50 is 69.1 µM in test [7] and 37.4 µM in test [8]. For the same molecule, the TGI in test [1] was 95.7 µM; in test [2], > 100 µM; in test [3], > 100 µM; in test [4], > 100 µM; in test [5], > 100 µM; in test [6] it was > 100 µM. Further, the TGI in test [7] and in test [8] was > 100 µM each time.

For the molecule `O=[N+]([O-])c1ccc(C=Cc2ccccc2)cc1.[C-]#[O+].[C-]#[O+].[C-]#[O+].[Cr]`, the GI50 in test [1] was > 100 µM; in test [2], 2.72 µM; in test [3], 5.63 µM; in test [4] it was > 100 µM; in test [5] it was 43.4 µM; in test [6], 44.4 µM. Moreover, the figures for the GI50 in test [7] and in test [8] were 36.7 µM and 43.3 µM, respectively. In addition, the TGI in test [1], in test [2], in test [3], in test [4], in test [5] and in test [6] was > 100 µM each time. Besides, the TGI in test [7] and in test [8] was > 100 µM throughout.

Regarding `C[C@@H]1CN(Cc2ccc(F)cc2)[C@@H](C)CN1C(=O)c1cc2c(C(=O)C(=O)N(C)C)cn(C)c2cc1Cl`, the GI50 in test [1] was 17.2 µM; in test [2], 18.5 µM; in test [3], 15.2 µM; in test [4] it was 18.7 µM; in test [5], 18.3 µM; in test [6], 15.7 µM. Moreover, the GI50 was 17.4 µM in test [7] and 18.9 µM in test [8]. Also, the TGI in test [1] came to 37.7 µM; in test [2], 50.2 µM; in test [3] it was 37.3 µM; in test [4], 48.9 µM; in test [5], 47.3 µM; in test [6] it was 34.7 µM. Besides, the figures for the TGI in test [7] and in test [8] were 46.1 µM and > 77.7 µM, respectively.

Take `CNCCCNCCCCNCCCN1C(=O)c2ccc3c4c(ccc(c24)C1=O)C(=O)N(CCCNCc1ccccc1OC)C3=O`: the GI50 was 0.939 µM in test [1]; 3.77 µM in test [2]; 2.77 µM in test [3]; 2.33 µM in test [4]; 4.27 µM in test [5]; 1.25 µM in test [6]. Further, the GI50 in test [7] was 3.24 µM; in test [8] it was 7.45 µM. The TGI in test [1] was 3.05 µM; in test [2] it was 39 µM; in test [3], 13 µM; in test [4], 25.6 µM; in test [5] it was 70.1 µM; in test [6], 8.07 µM. Also, the TGI came to 18 µM in test [7] and 44.4 µM in test [8].

Turning to `c1cnn2ncc(-c3ccnc(NCCCN4CCOCC4)n3)c2c1`, the GI50 in test [1] is 7.63 µM; in test [2], 7.73 µM; in test [3] it was 5.97 µM; in test [4] it was 5.76 µM; in test [5] it was 8.01 µM; in test [6] it was 6.68 µM. The GI50 was 7.18 µM in test [7] and 8.71 µM in test [8]. The TGI was 24.5 µM in test [1]; > 25 µM in test [2]; > 19 µM in test [3]; > 16.6 µM in test [4]; > 25 µM in test [5]; > 22.1 µM in test [6]. Moreover, the TGI in test [7] and in test [8] was > 25 µM each time.

Regarding `OCC1OC(n2cnc3c(N/N=C\c4ccccn4)ncnc32)C(O)C1O` (centres undefined), the GI50 in test [1] is 0.404 µM; in test [2], 0.0338 µM; in test [3] it was 0.122 µM; in test [4], 0.289 µM; in test [5] it was 0.129 µM; in test [6], 1.24 µM. For the same molecule, the GI50 in test [7] was 0.4 µM; in test [8] it was 0.361 µM. Moreover, the TGI in test [1] is 6.19 µM; in test [2], > 100 µM; in test [3], > 100 µM; in test [4], 2.14 µM; in test [5] it was > 100 µM; in test [6], 8.68 µM. Further, the figures for the TGI in test [7] and in test [8] were > 100 µM and > 33.6 µM, respectively.
